Data reported in US4690944A, “Homocysteine thiolactone derivatives, process for the preparation thereof and pharmaceutical compositions therefrom” (Chiesi Farmaceutici S.p.A., priority 1985, dated 1987).

How the values were obtained:
porcine gastric mucine = experiment: "In vitro" mucolytic activity (viscoelasticity of porcine gastric mucine); assay type: biochemical; conditions: 0.2 ml of 10% DMSO solution of compound in 1.8 ml of 6% mucine, 25° C., 30 minutes, 0.075 Hz
Experimental: Control samples were similarly added with the vehicle only. After incubation at 25° C. for 30 minutes, the analysis of the rheologic characteristics was carried out by means of Contraves Low-Shear 30 sinus viscosimeter endowed with oscillating device for the study of the viscoelasticity. The dynamic measurements of the viscoelasticity were carried out at a single frequency (0.075 Hz), using an appropriate concentrical cylinder measurement system, particularly suited for bronchial mucus (Contraves MS-LS 1-1).
The rheogramm was recorded on X/Y Rikadenki 11T recorder and the […] determination was carried out by means of vectorial calculation.
The percent decreases versus control samples, reported in Table 1, were determined from the means of the values of said parameters (at least 7 replications per sample).

respiratory tract = experiment: Mucosecretodynamic activity, "in vivo" fluorescein test; conditions: Mus musculus, po; male mice, p.o., 90 minutes before i.v. fluorescein; excretion increase versus controls
Experimental: The compounds, dissolved or suspended in 20 ml/kg of a 0.2% Tween® 80 aqueous suspension, were administered orally 90 minutes before the intravenous injection of 1% (5 ml/kg) fluorescein. Animals treated p.o. with the only vehicle were used as a control group. After 30 minutes from the fluorescein injection the animals were killed and subjected to incannulation of the trachea. Then the respiratory tract was washed and the spectrophotometric dosage of the fluorescein was carried out against phosphate buffer on the so collected eluate, suitably diluted with phosphate buffer and centrifugated.
The amount of fluorescein was determined by means of a calibration curve prepared in the same experimental conditions and the excretion expressed as ng/hour/10 g body weight. For each experimental session the percent increases of excretion versus controls were calculated.

[1] = Toxicity after single administration (acute toxicity, oral); conditions: mouse, in vivo, mice, p.o., death-rate after 7 days, read-out: Acute toxicity LD50 approx.
Experimental: IVA:NMRI (SPF) mice, fasted for 18 hours before treatment with water ad libitum, have been used. The compounds, dissolved or suspended in a 0.2% Tween® 80 aqueous solution, have been administered orally, at constant concentration (10%). According to the death-rate observed after 7 days from treatment, the approximate LD50 values, reported in Table 1, have been interpolated on Probits chart.

Compound	"in vitro" % decrease elasticity (G') (porcine gastric mucine)	"in vitro" % decrease viscosity (.eta.) (porcine gastric mucine)	ED50 (respiratory tract)	LD50 at 168 h [1]
CC(=O)N[C@@H](CS)C(=O)O [N-acetyl-L-cysteine, N--acetyl-L-cysteine, reference compound]	39%	53%	1300 mg/kg	4400 mg/kg
O=C(O)c1ccccc1C(=O)NC1CCSC1=O (centres unmarked) [II, 2-[[N-(tetrahydro-2-oxo-3-thienyl)amino]carbonyl]benzoic acid]	23%	45%	340 mg/kg	> 4000 mg/kg
O=C1SCCC1NC(=O)C1C2C=CC(C2)C1C(=O)O (centres unmarked) [IV, 3-[[N-(Tetrahydro-2-oxo-3-thienyl)amino]-carbonyl]bicyclo[2,2,1]-ept-5-ene-2-carboxylic acid]	32%	43%	25 mg/kg	> 4000 mg/kg
NC(CSCC(=O)O)C(=O)O (centres unmarked) [S-carboxymethyl-cysteine, S--carboxymethyl-cysteine, reference compound]	–	–	1900 mg/kg	> 4000 mg/kg
